These results are taken from patent publication US7943160B2, “Pest control methods” (priority 2002, dated 2011).

What all share (format): in vivo
For assay [1], the system named is larval ticks (I. scapularis). Put plainly: Systemic efficacy of fipronil diet on larval ticks fed on laboratory mice. The settings on record: for Replete Ticks: individual mice; for Replete Ticks, Total: 8 mice. On the procedure:
To investigate the systemic efficacy of fipronil against ticks, diet compositions formulated with the compound were presented to treatment mice while an EPA challenge diet, without insecticide, was presented to control mice. Diet compositions were presented for 48 hours. Water was supplied ad libitum. Feed consumption was monitored throughout the study. After 48-hours, mice were removed from their cages and 50-70 I. scapularis were applied to each mouse by first placing mice in 50 ml centrifuge tubes will multiple holes in them. Holes were created by melting the centrifuge tube with a soldering iron. Ticks were then applied and mice remained restrained in the tubes for 2-5 hours, thereby allowing the ticks to attach. The mice were placed in cages suspended over water in a humidity chamber maintaining humidity between 60-80%. Water underneath the suspended mice was checked daily for the presence of ticks falling from the mice. The number of fed and unfed ticks was recorded. Water pans were checked for 6 days. The ticks were kept at 21° C., 90% humidity and a light cycle of 16L:8D. Pans were checked for 5 days. The end-point for the insecticides were larval tick mortality after exposure.
Study 1a: A Diet Composition Containing 970-ppm Fipronil Diet was Formulated Using Inert Ingredients of Rolled Oats, Corn Meal, Powdered Sugar and Corn Oil.
The diet was exposed to laboratory mice for 48 hours.
Study 2a: A Diet Composition Containing 485-ppm Fipronil Diet was Formulated and Exposed to Laboratory Mice for 48 Hours.
The diet was exposed to laboratory mice for 48 hours. Ticks were applied directly to the mice.

Assay [2] concerns larval ticks (I. scapularis). The description is as above. The settings on record: diet compositions containing 960-ppm fipronil (so in the source).
Assay [3] has as its system German cockroaches. Put plainly: Cockroach mortality on rodent challenge diet fortified with imidacloprid. The settings on record: EPA challenge diet fortified with 250 mg/kg imidacloprid. Here is the method: To determine if rodent diet compositions containing imidacloprid would be effective at controlling cockroaches, German cockroaches were received from a commercial supplier and placed in a sealed container. Rodent “challenge diet”, the EPA standard rodent diet formulation, fortified with 250 mg/kg imidacloprid was placed in the cage. Water was supplied by a wet cotton wick. The mortality of cockroaches consuming diet was 100%.

The subject of assay [4] is X. cheopis fleas. Put plainly: Flea mortality on rats fed imidacloprid or imidacloprid/piperonyl butoxide diet. Here is the method:
For example, an investigation was conducted into the ability of piperonyl butoxide to potentiate the insecticidal activity of orally administered imidacloprid to rats challenged with fleas. Piperonyl butoxide compound is known to produce significant decreases in hepatic cytochrome P450 in rats (Dalvi and Dalvi 1991). Because imidacloprid is also metabolized by cytochrome P450 in rats (Schulz-Jander et al. 2002), decreasing the metabolism rate of imidacloprid in the rat (i.e., the rate at which imidacloprid is metabolized by the rat) may increase the availability and therefore the toxicity of the compound to fleas as well as possibly increasing the residual action of the insecticide. Four rats were evaluated for each test diet. Rats were individually housed in individual cages. Rats were housed in cages measuring 24×40.5×18 cm (L×W×H). The floor area measured 972 cm^2. Tap water in glass bottles with stainless steel sipper tubes was available ad libitum. Cages were suspended from shelves on two, single-sided racks. Rats were placed in cages identified by a consecutive number 1-8 and a descriptor for their sex (e.g. M or F). PBO Technical (Prentox®) was received from Prentiss Inc. (Floral Park, N.Y., Lot# 41428). Diet composition was made using the following recipes:
The imidacloprid (Imi) diet composition was formulated at 167 mg/kg imidacloprid. The imidacloprid/PBO diet composition was formulated at 169 mg/kg imidacloprid and 1% PBO. Diets were mixed and presented no-choice to rats for 24 hours. Flea feeding capsules, containing fleas (X. cheopis) were secured to the rats and remained attached for 5 hrs. After exposure, the flea feeders were removed and placed in the humidity chamber until the following morning. Fleas were then evaluated for mortality and morbidity (Table 5).

Several values for one entry are separate records, joined by “and”; a condition that tells them apart may be missing. Equal entries are not always repeated.

For the compound `N#Cc1nn(-c2c(Cl)cc(C(F)(F)F)cc2Cl)c(N)c1[S+]([O-])C(F)(F)F` (stereo not shown) [Fipronil, fipronil], the “Replete Ticks” value is recorded as 0 in assay [1] (485 ppm fipronil diet 48 hours, 70 ticks applied per mouse) and 0 in assay [1] (970-ppm fipronil diet 48 hours, 50 ticks applied per mouse). The “Replete Ticks, Total” value in assay [1] (485 ppm fipronil diet, 70 ticks each, control total 162) stood at 0; in assay [1] (970-ppm fipronil diet, 50 ticks each, control total 12), 0. For the same compound, the “prevents ticks from feeding to repletion” value in assay [1] (fipronil formulated at 485 mg/kg in diet) is “prevents ticks from feeding to repletion”. The “preventing ticks from feeding to repletion” value in assay [2] is given as “effective at preventing ticks from feeding to repletion”.

Turning to `O=[N+]([O-])NC1=NCCN1Cc1ccc(Cl)nc1` [Imidacloprid, imidacloprid], in assay [3], the “mortality of cockroaches consuming diet” value is reported as 100%. Besides, in assay [4] (4 rats per diet, pooled), the Total fleas dead/recovered entry is “(71/85)”. The “Total Percent Mortality (%)” value in assay [4] (4 rats per diet, Imi 167 mg/kg, Imi/pip 169 mg/kg imidacloprid and 1% PBO) stood at 83.5%. Further, the “# Fleas Dead/# Fleas Recovered” value in assay [4] (individual rats, diet 24 hours, flea capsules attached 5 hrs, Imi 167 mg/kg, Imi/pip 169 mg/kg imidacloprid and 1% PBO) was 20/24 and 18/18 and 15/15 and 18/28.
